Reference: ChEMBL document CHEMBL5236579, “Hydrophobicity Determines the Bacterial Killing Rate of α-Helical Antimicrobial Peptides and Influences the Bacterial Resistance Development” (J Med Chem, 2022)
Values after ≈ are worked out from the molar mass of the structure shown. Active and inactive are the calls of the source. The rule behind the calls is not given here. Where a SMILES comes first, the peptide text is derived from it.

Key:
Bacillus cereus = assay: Antimicrobial activity against clinical isolates Bacillus cereus by two fold broth microdilution method; type: functional
Vibrio parahaemolyticus [1] = assay: Bactericidal activity against Vibrio parahaemolyticus ATCC17802 assessed as killing rate at 0.5 X MIC by measuring time limit of detection by bacterial killing kinetic assay; type: functional
Escherichia coli = assay: Antimicrobial activity against Escherichia coli ATCC27622 by two fold broth microdilution method; type: functional
Vibrio parahaemolyticus [2] = assay: Antimicrobial activity against Vibrio parahaemolyticus ATCC17802 by two fold broth microdilution method; type: functional
Staphylococcus aureus [3] = assay: Antimicrobial activity against clinical isolates Staphylococcus aureus by two fold broth microdilution method; type: functional
Staphylococcus aureus [4] = assay: Antimicrobial activity against Staphylococcus aureus ATCC25923 by two fold broth microdilution method; type: functional
Cell membrane = assay: Induction of inner membrane permeabilization in Vibrio parahaemolyticus ATCC17802 assessed as increase in PI fluorescence intensity at 5 times MIC by propidium iodide penetration assay; type: cell membranes; conditions: time <= 200.0 min

Row | MIC (Bacillus cereus) [µg/mL] | MIC (Escherichia coli) [µg/mL] | MIC (Staphylococcus aureus [3]) [µg/mL] | MIC (Staphylococcus aureus [4]; read-out: MIC) [µg/mL] | MIC (Staphylococcus aureus [4]) [µg/mL] | SMILES | Time (Vibrio parahaemolyticus [1]) [min] | MIC (Vibrio parahaemolyticus [2]) [µg/mL] | Activity (Cell membrane)
1 | 18.8 (≈ 10.5 µM) | 9.38 (≈ 5.24 µM) | 18.8 (≈ 10.5 µM) | 9.38 (≈ 5.24 µM) |  | CC[C@H](C)[C@H](NC(=O)[C@H](C)NC(=O)[C@H](CCCNC(=N)N)NC(=O)[C@H](C)NC(=O)[C@H](CC(C)C)NC(=O)[C@H](CCCCN)NC(=O)[C@H](CCCCN)NC(=O)[C@H](Cc1ccccc1)NC(=O)[C@H](CC(C)C)NC(=O)CNC(=O)[C@H](C)N)C(=O)N[C@@H](C)C(=O)N[C@@H](CCCCN)C(=O)NCC(=O)N[C@@H](Cc1ccccc1)C(=O)N[C@@H](CCCCN)C(=O)N[C@@H](C)C(=O)O (H-AGLFKKLARAIAKGFKA-OH) | >180 | 4.69 (≈ 2.62 µM) | 
2 | 9.38 (≈ 4.96 µM) | 9.38 (≈ 4.96 µM) | 18.8 (≈ 9.92 µM) | 4.69 (≈ 2.48 µM) |  | CC[C@H](C)[C@H](NC(=O)[C@H](C)NC(=O)[C@H](CCCNC(=N)N)NC(=O)[C@H](C)NC(=O)[C@H](CC(C)C)NC(=O)[C@H](CCCCN)NC(=O)[C@H](CCCCN)NC(=O)[C@H](Cc1ccccc1)NC(=O)[C@H](CC(C)C)NC(=O)CNC(=O)[C@H](C)N)C(=O)N[C@@H](CCCCN)C(=O)N[C@@H](CCCCN)C(=O)NCC(=O)N[C@@H](Cc1ccccc1)C(=O)N[C@@H](CCCCN)C(=O)N[C@@H](CC(C)C)C(=O)O (H-AGLFKKLARAIKKGFKL-OH) | >180 | 4.69 (≈ 2.48 µM) | Active
3 | > 200 | > 200 | > 200 |  | > 200 | CC[C@H](C)[C@H](NC(=O)[C@H](CC(C)C)NC(=O)[C@H](CCCNC(=N)N)NC(=O)[C@H](CC(C)C)NC(=O)[C@H](CC(C)C)NC(=O)[C@H](CC(C)C)NC(=O)[C@H](CCCCN)NC(=O)[C@H](Cc1ccccc1)NC(=O)[C@H](CC(C)C)NC(=O)CNC(=O)[C@@H](N)CC(C)C)C(=O)N[C@@H](CC(C)C)C(=O)N[C@@H](CCCCN)C(=O)NCC(=O)N[C@@H](Cc1ccccc1)C(=O)N[C@@H](CCCCN)C(=O)N[C@@H](CC(C)C)C(=O)O (H-LGLFKLLLRLILKGFKL-OH) |  | > 200 | 
4 | > 200 | > 200 | > 200 |  | > 200 | CC[C@H](C)[C@H](NC(=O)[C@H](CC(C)C)NC(=O)[C@H](CCCNC(=N)N)NC(=O)[C@H](CC(C)C)NC(=O)[C@H](CC(C)C)NC(=O)[C@H](CC(C)C)NC(=O)[C@H](CC(C)C)NC(=O)[C@H](Cc1ccccc1)NC(=O)[C@H](CC(C)C)NC(=O)CNC(=O)[C@@H](N)CC(C)C)C(=O)N[C@@H](CC(C)C)C(=O)N[C@@H](CCCCN)C(=O)NCC(=O)N[C@@H](Cc1ccccc1)C(=O)N[C@@H](CCCCN)C(=O)N[C@@H](CC(C)C)C(=O)O (H-LGLFLLLLRLILKGFKL-OH) |  | > 200 | 
5 | 18.8 (≈ 9.42 µM) | 9.38 (≈ 4.71 µM) | 18.8 (≈ 9.42 µM) | 9.38 (≈ 4.71 µM) |  | CC[C@H](C)[C@H](NC(=O)[C@H](C)NC(=O)[C@H](CCCNC(=N)N)NC(=O)[C@H](C)NC(=O)[C@H](CC(C)C)NC(=O)[C@H](CCCCN)NC(=O)[C@H](CCCCN)NC(=O)[C@H](Cc1ccccc1)NC(=O)[C@H](CC(C)C)NC(=O)CNC(=O)[C@@H](N)CCCNC(=N)N)C(=O)N[C@@H](CCCCN)C(=O)N[C@@H](CCCCN)C(=O)NCC(=O)N[C@@H](Cc1ccccc1)C(=O)N[C@@H](CCCCN)C(=O)N[C@@H](CCCCN)C(=O)O (H-RGLFKKLARAIKKGFKK-OH) | >180 | 4.69 (≈ 2.36 µM) | Active
6 | 9.38 (≈ 4.4 µM) | 18.8 (≈ 8.8 µM) | 18.8 (≈ 8.8 µM) | 4.69 (≈ 2.2 µM) |  | CC[C@H](C)[C@H](NC(=O)[C@H](CCCCN)NC(=O)[C@H](CCCNC(=N)N)NC(=O)[C@H](CCCNC(=N)N)NC(=O)[C@H](CC(C)C)NC(=O)[C@H](CCCCN)NC(=O)[C@H](CCCCN)NC(=O)[C@H](Cc1ccccc1)NC(=O)[C@H](CC(C)C)NC(=O)CNC(=O)[C@@H](N)CCCNC(=N)N)C(=O)N[C@@H](CCCCN)C(=O)N[C@@H](CCCCN)C(=O)NCC(=O)N[C@@H](Cc1ccccc1)C(=O)N[C@@H](CCCCN)C(=O)N[C@@H](CCCCN)C(=O)O (H-RGLFKKLRRKIKKGFKK-OH) | >180 | 4.69 (≈ 2.2 µM) | Active
7 | 4.69 (≈ 1.07 µM) | 9.38 (≈ 2.13 µM) | 9.38 (≈ 2.13 µM) | 4.69 (≈ 1.07 µM) |  | CC[C@H](C)[C@H](NC(=O)[C@H](CCCCN)NC(=O)[C@H](CCCNC(=N)N)NC(=O)[C@H](CCCNC(=N)N)NC(=O)[C@H](CC(C)C)NC(=O)[C@H](CCCCN)NC(=O)[C@H](CCCCN)NC(=O)[C@H](Cc1ccccc1)NC(=O)[C@H](CC(C)C)NC(=O)CNC(=O)[C@H](CCCNC(=N)N)NC(=O)[C@@H](N)CCCNC(=N)N)C(=O)N[C@@H](CCCCN)C(=O)N[C@@H](CCCCN)C(=O)NCC(=O)N[C@@H](Cc1ccccc1)C(=O)N[C@@H](CCCCN)C(=O)N[C@@H](CCCCN)C(=O)N[C@H](C(=O)N[C@@H](Cc1ccccc1)C(=O)N[C@@H](CCCCN)C(=O)N[C@@H](CCCNC(=N)N)C(=O)N[C@@H](CC(C)C)C(=O)N1CCC[C@H]1C(=O)N1CCC[C@H]1C(=O)N[C@H](C(=O)NCC(=O)N[C@H](C(=O)NCC(=O)N[C@H](C(=O)N[C@@H](CO)C(=O)N[C@H](C(=O)N1CCC[C@H]1C(=O)N[C@@H](CC(C)C)C(=O)N[C@@H](C)C(=O)NCC(=O)N[C@@H](CCCNC(=N)N)C(=O)N[C@@H](CCCNC(=N)N)C(=O)O)[C@@H](C)CC)C(C)C)C(C)C)C(C)C)[C@@H](C)CC (H-RRGLFKKLRRKIKKGFKKIFKRLPPVGVGVSIPLAGRR-OH) | 120 | 4.69 (≈ 1.07 µM) | 
8 | 9.38 (≈ 3.67 µM) | 9.38 (≈ 3.67 µM) | 9.38 (≈ 3.67 µM) | 2.34 (≈ 0.915 µM) |  | CC[C@H](C)[C@H](NC(=O)[C@H](CCCCN)NC(=O)[C@H](CC(C)C)NC(=O)[C@H](C)NC(=O)CNC(=O)[C@H](CC(N)=O)NC(=O)[C@H](CC(C)C)NC(=O)[C@@H](NC(=O)[C@H](CCCCN)NC(=O)[C@H](CCCCN)NC(=O)[C@H](Cc1c[nH]c2ccccc12)NC(=O)[C@H](Cc1ccccc1)NC(=O)[C@H](CCCCN)NC(=O)[C@H](CCCNC(=N)N)NC(=O)[C@H](CCCNC(=N)N)NC(=O)[C@@H](N)[C@@H](C)O)C(C)C)C(=O)N[C@@H](C)C(=O)N1CCC[C@H]1C(=O)N[C@@H](Cc1ccccc1)C(=O)N[C@@H](CC(C)C)C(=O)N[C@@H](CC(C)C)C(=O)NCC(=O)O (H-TRRKFWKKVLNGALKIAPFLLG-OH) | 15 | 4.69 (≈ 1.83 µM) | 

Row | SMILES | MIC (Bacillus cereus) [µg/mL] | MIC (Escherichia coli) [µg/mL] | MIC (Staphylococcus aureus [3]) [µg/mL] | MIC (Staphylococcus aureus [4]; read-out: MIC) [µg/mL] | MIC (Staphylococcus aureus [4]) [µg/mL] | Time (Vibrio parahaemolyticus [1]) [min] | MIC (Vibrio parahaemolyticus [2]) [µg/mL] | Activity (Cell membrane)
9 | CN[C@H](CC(C)C)C(=O)N[C@H]1C(=O)N[C@@H](CC(N)=O)C(=O)N[C@H]2C(=O)N[C@H]3C(=O)N[C@H](C(=O)N[C@H](C(=O)O)c4cc(O)cc(O)c4-c4cc3ccc4O)[C@H](O)c3ccc(c(Cl)c3)Oc3cc2cc(c3O[C@@H]2O[C@H](CO)[C@@H](O)[C@H](O)[C@H]2O[C@H]2C[C@](C)(N)[C@H](O)[C@H](C)O2)Oc2ccc(cc2Cl)[C@H]1O [VANCOMYCIN] | > 200 | 75 (≈ 51.8 µM) | > 200 | 0.59 (≈ 0.407 µM) |  |  | 75 (≈ 51.8 µM) | 
